Assay results from the CheMixHub viscosity set.

Assay: xn = mol fraction of the nth substance listed

C1COCO1 + CC(C)O
303.15 K, 101 kPa
Conditions	viscosity [mPa·s]
x1 = 0.08269	1.212
x1 = 0.1686	0.9776
x1 = 0.258	0.8386
x1 = 0.351	0.7477
x1 = 0.4479	0.6645
x1 = 0.5489	0.6082
x1 = 0.6543	0.6033
x1 = 0.7644	0.5856
x1 = 0.8795	0.5637

CN(C)P(=O)(N(C)C)N(C)C + CC(C)O
303.15 K, 101.3 kPa
Conditions	viscosity [mPa·s]
x1 = 0.0867	1.855
x1 = 0.1008	1.87
x1 = 0.1839	1.937
x1 = 0.2608	1.991
x1 = 0.3481	2.075
x1 = 0.4017	2.136
x1 = 0.5056	2.279
x1 = 0.6052	2.407
x1 = 0.705	2.547
x1 = 0.7928	2.668
x1 = 0.8899	2.791

[Al+3].[Cl-].[Cl-].[Cl-] + CC(N)=O
viscosity [mPa·s], 101 kPa
Conditions	x1 = 0.5	x1 = 0.52	x1 = 0.57	x1 = 0.6
313 K	59.32	47.47	44.48	40.23
323 K	41.01	32.24	30.87	28.7

C1COCO1 + CCC(C)O
viscosity [mPa·s]
Conditions	298.15 K	303.15 K	313.15 K
101 kPa, x1 = 0.1001	–	1.516	–
101 kPa, x1 = 0.2001	–	1.181	–
101 kPa, x1 = 0.3001	–	0.9354	–
101 kPa, x1 = 0.4001	–	0.812	–
101 kPa, x1 = 0.5001	–	0.7072	–
101 kPa, x1 = 0.6001	–	0.6589	–
101 kPa, x1 = 0.7001	–	0.612	–
101 kPa, x1 = 0.8001	–	0.5894	–
101 kPa, x1 = 0.9001	–	0.5588	–
101.33 kPa, x1 = 0.0987	1.997	–	1.29
101.33 kPa, x1 = 0.1966	1.454	–	1.016
101.33 kPa, x1 = 0.2957	1.149	–	0.8449
101.33 kPa, x1 = 0.3994	0.9497	–	0.7262
101.33 kPa, x1 = 0.5008	0.8242	–	0.6486
101.33 kPa, x1 = 0.6023	0.7412	–	0.593
101.33 kPa, x1 = 0.699	0.6698	–	0.55
101.33 kPa, x1 = 0.8014	0.6265	–	0.5218
101.33 kPa, x1 = 0.9023	0.5997	–	0.5052

CC(C)OC(C)C + CCC(C)O
viscosity [mPa·s], 100 kPa
Conditions	x1 = 0.0813	x1 = 0.1604	x1 = 0.2406	x1 = 0.341	x1 = 0.447	x1 = 0.5582	x1 = 0.6505	x1 = 0.7374	x1 = 0.8465	x1 = 0.9346
293.15 K	3	2.51	2.1	1.653	1.304	0.976	0.772	0.623	0.473	0.384
298.15 K	2.51	2.09	1.75	1.395	1.122	0.846	0.678	0.56	0.44	0.365
303.15 K	2.11	1.742	1.453	1.16	0.95	0.75	0.619	0.522	0.414	0.344
308.15 K	1.76	1.48	1.241	1.004	0.834	0.67	0.558	0.473	0.388	0.325
313.15 K	1.49	1.25	1.06	0.87	0.73	0.596	0.51	0.44	0.361	0.307
318.15 K	1.28	1.074	0.92	0.769	0.65	0.535	0.46	0.4	0.333	0.29
323.15 K	1.1	0.931	0.801	0.67	0.575	0.48	0.416	0.367	0.31	0.27

CC(=O)c1ccccc1 + CCCC(C)O
298.15 K, 101 kPa
Conditions	viscosity [mPa·s]
x1 = 0.2502	1.875
x1 = 0.7547	1.605

[Al+3].[Cl-].[Cl-].[Cl-] + CCCC(N)=O
viscosity [mPa·s], 101 kPa
Conditions	x1 = 0.5	x1 = 0.52	x1 = 0.57	x1 = 0.6	x1 = 0.63
313 K	28.41	23.88	23.18	24.75	27.31
323 K	20.42	17.69	17.62	17.72	19.85

CCCCCCCCC + CCCCCC
298.15 K, 101.33 kPa
Conditions	viscosity [mPa·s]
x2 = 0.1073	0.6111
x2 = 0.21	0.5693
x2 = 0.2873	0.5367
x2 = 0.4024	0.5017
x2 = 0.5044	0.4527
x2 = 0.6074	0.42
x2 = 0.7035	0.3874
x2 = 0.804	0.3547
x2 = 0.9035	0.3272

CCC(O)CC + CCCCCCC
101 kPa
Conditions	viscosity [mPa·s]
293.4 K, x1 = 0.201	0.531
294 K, x1 = 0.026	0.466
294.1 K, x1 = 0.101	0.489
295.1 K, x1 = 0.5	0.734

CCCCCCCCC + CCCCCCC
298.15 K, 101.33 kPa
Conditions	viscosity [mPa·s]
x2 = 0.1102	0.6128
x2 = 0.2046	0.5921
x2 = 0.3052	0.562
x2 = 0.407	0.5372
x2 = 0.5092	0.5104
x2 = 0.6073	0.4838
x2 = 0.7071	0.4588
x2 = 0.8027	0.4312
x2 = 0.8996	0.4081

CCCCCCCC/C=C\CCCCCCCC(=O)OCC(COC(=O)CCCCCCC/C=C\CCCCCCCC)OC(=O)CCCCCCC/C=C\CCCCCCCC + CCCCCCCC
viscosity [mPa·s], 101.33 kPa
Conditions	x1 = 0.000908	x1 = 0.001916	x1 = 0.004907	x1 = 0.0101	x1 = 0.02609	x1 = 0.03555	x1 = 0.05997	x1 = 0.08297
293.15 K	0.5531	0.5668	0.6068	0.6753	0.9348	1.11	1.638	2.268
298.15 K	0.5204	0.5329	0.5699	0.6331	0.8701	1.03	1.505	2.064
303.15 K	0.4903	0.502	0.536	0.5947	0.8126	0.9579	1.388	1.894
308.15 K	0.4628	0.4737	0.5055	0.5596	0.7605	0.8936	1.284	1.741
313.15 K	0.4377	0.4478	0.4774	0.5277	0.7134	0.8357	1.191	1.606

CCCCCCCCC + CCCCCCCC
298.15 K, 101.33 kPa
Conditions	viscosity [mPa·s]
x2 = 0.1092	0.631
x2 = 0.2071	0.6264
x2 = 0.3038	0.6069
x2 = 0.4058	0.5951
x2 = 0.5051	0.5768
x2 = 0.6076	0.5586
x2 = 0.7044	0.5497
x2 = 0.8047	0.5318
x2 = 0.9025	0.5116

CCCCCCCCC + CCCCCCCCCC
298.15 K, 101.33 kPa
Conditions	viscosity [mPa·s]
x1 = 0.1051	0.8387
x1 = 0.2082	0.8061
x1 = 0.3045	0.7835
x1 = 0.4048	0.7761
x1 = 0.5057	0.7535
x1 = 0.6085	0.7344
x1 = 0.7065	0.7185
x1 = 0.806	0.6913
x1 = 0.897	0.6734

CCCCCC(=O)[O-].[Na+] + CCCCCCCCCC(=O)O
100 kPa, x1 = 0.3
Conditions	viscosity [mPa·s]
293.15 K	285.4
298.15 K	213.6
303.15 K	162.3
308.15 K	125.7
313.15 K	98.9
318.15 K	79
323.15 K	63.9

CCCCCCCCC + CCCCCCCCCCCC
298.15 K, 101.33 kPa
Conditions	viscosity [mPa·s]
x1 = 0.0957	1.273
x1 = 0.1995	1.187
x1 = 0.3049	1.111
x1 = 0.4056	1.022
x1 = 0.5088	0.969
x1 = 0.6103	0.8955
x1 = 0.7039	0.8282
x1 = 0.8049	0.7721
x1 = 0.9023	0.7118

CCCCCCCCC + CCCCCCCCCCCCCCCC
298.15 K, 101.33 kPa
Conditions	viscosity [mPa·s]
x1 = 0.1105	2.698
x1 = 0.2002	2.416
x1 = 0.3173	2.072
x1 = 0.4054	1.832
x1 = 0.5056	1.571
x1 = 0.5795	1.404
x1 = 0.7077	1.152
x1 = 0.8024	0.9655
x1 = 0.8988	0.8177

CCCCCCCCc1ccccc1 + CCCCCCCCCCCCCCCC
viscosity [mPa·s], 102 kPa
Conditions	x1 = 0.1177	x1 = 0.2297	x1 = 0.3377	x1 = 0.4423	x1 = 0.5431	x1 = 0.6411	x1 = 0.7351	x1 = 0.8263	x1 = 0.9146
293.15 K	3.28	3.16	3.05	2.94	2.85	2.78	2.71	2.65	2.62
303.15 K	2.61	2.52	2.44	2.36	2.3	2.25	2.19	2.15	2.12
313.15 K	2.13	2.06	2	1.94	1.89	1.86	1.81	1.78	1.76
323.15 K	1.77	1.72	1.67	1.63	1.59	1.56	1.52	1.5	1.48

CC(=O)c1ccccc1 + CCCCCO
298.15 K, 101 kPa
Conditions	viscosity [mPa·s]
x1 = 0.0754	3.104
x1 = 0.155	3.016
x1 = 0.2392	2.918
x1 = 0.3285	2.801
x1 = 0.4232	2.657
x1 = 0.524	2.498
x1 = 0.6313	2.31
x1 = 0.7459	2.102
x1 = 0.8685	1.898
